Assay results reported in patent publication US20160201063A1, “EPIGENETIC REGULATORS OF FRATAXIN” (RANA THERAPEUTICS, INC., priority 2013, published 2016).
Structures can show the parent of a compound that is named as a salt.

Assays:
FXN mRNA [1] = assay: Screen of library of eighty epigenetic inhibitors in GM03816 FRDA diseased fibroblasts, FXN mRNA fold change; type: cell-based, human; details: for fold induction at 1 µM / fold induction at 5 µM: Homo sapiens, Fibroblast, 72 h; for fold induction at 1 µM: read-out: 3816 1 uM (FXN mRNA fold change); for fold induction at 5 µM: read-out: 3816 5 uM (FXN mRNA fold change)
Procedure: FXN RNA levels are indicated on the y-axis and the inhibitors used at both 1 μM and 5 μM are shown on the x-axis.
A screen of a library of eighty epigenetic inhibitors (Cayman Chemical) was performed in GM03816 FRDA fibroblasts to identify epigenetic regulators that upregulate FXN expression.

FXN mRNA [2] = assay: Screen of epigenetic inhibitors in GM0321 normal fibroblasts, FXN RNA levels; type: cell-based, human; details: for fold induction at 1 µM / fold induction at 5 µM: Homo sapiens, Fibroblast, 72 h; for fold induction at 1 µM: read-out: FXN mRNA fold change, 321B 1 uM; for fold induction at 5 µM: read-out: FXN mRNA fold change, 321B 5 uM
[3] = GM03816 FRDA diseased fibroblasts, 1 uM inhibitor, 3 days of treatment
[4] = GM03816 FRDA diseased fibroblasts, 5 uM inhibitor, 3 days of treatment
[5] = GM0321 normal fibroblasts, 1 uM inhibitor, 3 days of treatment
[6] = GM0321 normal fibroblasts, 5 uM inhibitor, 3 days of treatment

Row | SMILES | 3816 1 uM (FXN mRNA fold change) (FXN mRNA [1]; [3]) | 3816 5 uM (FXN mRNA fold change) (FXN mRNA [1]; [4]) | FXN mRNA fold change, 321B 1 uM (FXN mRNA [2]; [5]) | FXN mRNA fold change, 321B 5 uM (FXN mRNA [2]; [6]) | other results
1 | COCCCn1c(N)c(C(=O)NC2CCCC2)c2nc3ccccc3nc21 [CAY10591] | 1.311 | 1.377 | 0.9828 | 1.437 | 
2 | CC(C)(C)OC(=O)Nc1ccc(-c2cc(C(=O)NCCCCCCC(=O)NO)no2)cc1 [CAY10603] | 0.5205 | 0.07004 | 0.3592 |  | 
3 | CCCCCOc1ccc(/C=C\c2cccc(O)c2C(=O)O)cc1 [CAY10669] | 0.8709 | 1.074 | 0.7796 | 0.3094 | 
4 | O=C(/C=C/c1cccc(C(=O)NO)c1)NO [CBHA] | 0.4678 | 0.1327 | 0.7208 | 0.4875 | 
5 | O=C(Nc1ccc(Cl)cc1)C1CCCN(C(=O)c2cc(C(F)(F)F)cc(C(F)(F)F)c2)C1 (stereo not drawn) [CCG-100602] | 1.147 | 1.213 | 0.8325 | 0.9592 | 
6 | Nc1cc(F)ccc1NC(=O)c1ccc(CNC(=O)/C=C/c2cccnc2)cc1 [Chidamide] |  |  |  |  | fold induction at 1 µM (FXN mRNA [1]; [3]): 0.924; fold induction at 5 µM (FXN mRNA [1]; [4]): 0.968; fold induction at 1 µM (FXN mRNA [2]; [5]): 0.835; fold induction at 5 µM (FXN mRNA [2]; [6]): 0.799
7 | NC(=O)[C@H](CCCN=C(N)CCl)NC(=O)c1ccccc1 [Cl-Amidine] | 1.153 | 0.9028 | 0.9432 | 0.9931 | 
8 | COC(=O)CNC(=O)C(=O)OC [DMOG] | 0.9685 | 0.9131 | 0.7317 | 0.9433 | 
9 | CN(C)NC(=O)CCC(=O)O [Daminozide] |  |  |  |  | fold induction at 1 µM (FXN mRNA [1]): 0.824; fold induction at 5 µM (FXN mRNA [1]): 0.881; fold induction at 1 µM (FXN mRNA [2]): 1.04; fold induction at 5 µM (FXN mRNA [2]): 0.898
10 | Oc1cc(O)c2cc(O)c(-c3cc(O)c(O)c(O)c3)[o+]c2c1 [Delphinidin chloride] |  |  |  |  | fold induction at 1 µM (FXN mRNA [1]; [3]): 0.954; fold induction at 5 µM (FXN mRNA [1]; [4]): 0.885; fold induction at 1 µM (FXN mRNA [2]; [5]): 1.09; fold induction at 5 µM (FXN mRNA [2]; [6]): 1.04
11 | O=c1oc2c(O)c(O)cc3c(=O)oc4c(O)c(O)cc1c4c23 [Ellagic Acid] |  |  |  |  | fold induction at 1 µM (FXN mRNA [1]; [3]): 0.788; fold induction at 5 µM (FXN mRNA [1]; [4]): 0.189; fold induction at 1 µM (FXN mRNA [2]; [5]): 0.675; fold induction at 5 µM (FXN mRNA [2]; [6]): 0.248
12 | NC(=O)[C@H](CCCN=C(N)CF)NC(=O)c1ccccc1 [F-Amidine] | 0.7818 | 0.6484 | 0.9152 | 0.9697 | 
13 | O=C(O)CCNc1cc(N2CCc3ccccc3CC2)nc(-c2ccccn2)n1 [GSK-J1 (sodium salt)] | 0.8866 | 0.7892 | 0.9779 | 0.9423 | 
14 | O=C(O)CCNc1cc(N2CCc3ccccc3CC2)nc(-c2cccnc2)n1 [GSK-J2 (sodium salt)] | 0.9711 | 0.9938 | 1.063 |  | 
15 | CCOC(=O)CCNc1cc(N2CCc3ccccc3CC2)nc(-c2ccccn2)n1.Cl [GSK-J4 (hydrochloride)] | 0.927 | 0.8762 | 1.002 | 0.8744 | 
16 | CCOC(=O)CCNc1cc(N2CCc3ccccc3CC2)nc(-c2cccnc2)n1.Cl [GSK-J5 (hydrochloride)] | 1.183 | 0.9451 | 0.8597 | 0.9741 | 

Row | SMILES | 3816 1 uM (FXN mRNA fold change) (FXN mRNA [1]; [3]) | 3816 5 uM (FXN mRNA fold change) (FXN mRNA [1]; [4]) | FXN mRNA fold change, 321B 1 uM (FXN mRNA [2]; [5]) | FXN mRNA fold change, 321B 5 uM (FXN mRNA [2]; [6]) | other results
17 | C=C(C)[C@@H](CC=C(C)C)C[C@@]12C[C@@H](CC=C(C)C)C(C)(C)[C@@](CC=C(C)C)(C(=O)C(C(=O)c3ccc(O)c(O)c3)=C1O)C2=O [Garcinol] |  |  |  |  | fold induction at 1 µM (FXN mRNA [1]; [3]): 1.01; fold induction at 5 µM (FXN mRNA [1]; [4]): 1.09; fold induction at 1 µM (FXN mRNA [2]; [5]): 0.63; fold induction at 5 µM (FXN mRNA [2]; [6]): 1.33
18 | O=C(O)c1ccc(O)c2ncccc12 [IOX1] | 1.272 | 0.8722 | 0.9479 | 0.7185 | 
19 | O=C(/C=C/c1ccc(O)cc1)c1ccc(O)cc1O [Isoliquiritigenin] |  |  |  |  | fold induction at 1 µM (FXN mRNA [1]; [3]): 1.27; fold induction at 5 µM (FXN mRNA [1]; [4]): 0.963; fold induction at 1 µM (FXN mRNA [2]; [5]): 1.16; fold induction at 5 µM (FXN mRNA [2]; [6]): 1.29
20 | O=C(NCc1ccccc1)c1c(/N=C/c2c(O)ccc3ccccc23)sc2c1CCCC2 [JGB1741] | 1.006 | 1.17 | 0.9963 | 0.7224 | 
21 | Nc1ccccc1NC(=O)c1ccc(CNC(=O)OCc2cccnc2)cc1 [MS-275] | 0.2266 | 0.2333 |  | 0.2713 | 
22 | N=C1NC(=O)/C(=C/c2ccc(O)cc2)S1 [Mirin] |  |  |  |  | fold induction at 1 µM (FXN mRNA [1]): 1.06; fold induction at 5 µM (FXN mRNA [1]): 0.679; fold induction at 1 µM (FXN mRNA [2]): 1.08; fold induction at 5 µM (FXN mRNA [2]): 1.31
23 | O=C(O)CNC(=O)C(=O)O [N-Oxalylglycine] |  |  |  |  | fold induction at 1 µM (FXN mRNA [1]; [3]): 0.708; fold induction at 5 µM (FXN mRNA [1]; [4]): 1.03; fold induction at 5 µM (FXN mRNA [2]; [6]): 0.68
24 | NC(=O)c1cccnc1 [Nicotinamide] |  |  |  |  | fold induction at 1 µM (FXN mRNA [1]; [3]): 0.852; fold induction at 5 µM (FXN mRNA [1]; [4]): 0.775; fold induction at 1 µM (FXN mRNA [2]; [5]): 0.687; fold induction at 5 µM (FXN mRNA [2]; [6]): 0.702
25 | O=C(CCCCCCC(=O)Nc1ccc(I)cc1)NO [Oligo 4-iodo-SAHA] | 0.6878 | 0.1302 | 0.668 | 0.5901 | 
26 | COc1ccc(Cn2ccc3ccc(C(=O)NO)cc32)cc1 [PCI 34051] | 1.084 | 1.209 | 0.9743 | 1.306 | 
27 | COc1ccccc1S(=O)(=O)Nc1ccc2c(c1)CN(C)C(=O)N2 [PFI-1] | 0.9175 | 0.923 | 0.9577 | 0.9071 | 
28 | Oc1cc(O)cc(/C=C/c2ccc(O)c(O)c2)c1 [Picetannol] | 0.7867 | 0.5435 | 0.5008 | 0.538 | 
29 | Cc1ccc(NC(=O)CCCCCC(=O)Nc2ccccc2N)cc1 [Pimelic Diphenylamide 106] | 0.7457 | 0.4858 | 0.694 | 0.2094 | 
30 | O=C(O)C(Cc1c[nH]c2ccccc12)N1C(=O)c2ccccc2C1=O (stereo not drawn) [RG-108] | 1.001 | 0.8966 |  | 0.6222 | 
31 | Nc1ncnc2c1ncn2[C@@H]1O[C@H](CSCC[C@H](N)C(=O)O)[C@@H](O)[C@H]1O [S-Adenosylhomocysteine] |  |  |  |  | fold induction at 1 µM (FXN mRNA [1]; [3]): 1.07; fold induction at 5 µM (FXN mRNA [1]; [4]): 0.886; fold induction at 1 µM (FXN mRNA [2]; [5]): 0.975; fold induction at 5 µM (FXN mRNA [2]; [6]): 0.619
32 | O=C(CCCCCCC(=O)Nc1ccccc1)NO [SAHA] | 0.4857 | 0.0916 | 0.4256 | 0.1923 | 
